Experimental findings from ChEMBL document CHEMBL1201862, “PubChem BioAssay data set” (2004) are described below.

Among the test systems are A498; ACHN; BT-549; CCRF-CEM; COLO 205; Hs-578T; K562; LOX IMVI; MCF7; NCI-H226; NCI-H522; NCI/ADR-RES; OVCAR-3; OVCAR-4; OVCAR-8; SF-539; SK-MEL-28; SNB-19; TK-10; U-251.
What all share (assay): inhibition of tumour cell growth, NCI panel, 48 h

Molecules are shown by their SMILES.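 A five-concentration, 48-hour dose response in 96-well plates underlies each endpoint, interpolated linearly between surrounding concentrations. GI50 = concentration required for 50% inhibition of growth.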 Active and inactive are the calls of the source. Rule as the data show it: active = GI50 up to about 1.1 µM and inactive = higher.

Consider `CCC(=O)Nc1ccc(NCC(=O)Nc2ccc(Cl)cc2)cc1`, for which the GI50 is 17.7 µM (inactive) in the assay with A498; 13.3 µM (inactive) in the assay on ACHN; 21.9 µM (inactive) in the assay with BT-549; 12.5 µM (inactive) in the assay on CCRF-CEM; 16.9 µM (inactive) in the assay with COLO 205; 37 µM (inactive) with Hs-578T. In addition, the GI50 was 24 µM (inactive) in the assay on K562; 13.1 µM (inactive) in the assay on LOX IMVI; 14.3 µM (inactive) in the assay on MCF7; 18.2 µM (inactive) with NCI-H226; 15 µM (inactive) with NCI-H522; 33.2 µM (inactive) in the assay with NCI/ADR-RES. Further, the GI50 in the assay on OVCAR-3 was 15.7 µM (inactive); in the assay with OVCAR-4, 14 µM (inactive); in the assay with OVCAR-8, 27.5 µM (inactive); with SF-539 it was 18.1 µM (inactive); in the assay on SK-MEL-28, 19.9 µM (inactive); with SNB-19 it was 19.8 µM (inactive).

Consider `O=C1N(CN2CCOCC2)CN(CN2CCOCC2)C(=O)N1Cc1ccc(-c2ccc(CN3C(=O)N(CN4CCOCC4)CN(CN4CCOCC4)C3=O)cc2)cc1`, for which the GI50 with A498 is 15.3 µM (inactive); in the assay with ACHN, 27.4 µM (inactive); in the assay with BT-549, 5.87 µM (inactive); in the assay on COLO 205, > 21 µM (inactive); with Hs-578T, 26.2 µM (inactive); in the assay on K562, 3.75 µM (inactive). The GI50 with LOX IMVI is 10 µM (inactive); with MCF7, 4 µM (inactive); in the assay on NCI-H226, > 46.2 µM (inactive); in the assay on NCI-H522, 12.2 µM (inactive); in the assay with NCI/ADR-RES, 17.3 µM (inactive); in the assay with OVCAR-3, 7.78 µM (inactive). In addition, the GI50 in the assay on OVCAR-4 is 14 µM (inactive); with OVCAR-8, 20.5 µM (inactive); in the assay with SF-539, > 27.8 µM (inactive); in the assay on SK-MEL-28, 12.9 µM (inactive); in the assay with SNB-19 it was 10.3 µM (inactive); in the assay with TK-10, 16.5 µM (inactive). In addition, in the assay with U-251, the GI50 was 16.1 µM (inactive).

`CC(C)C[C@H](NC(=O)CCc1cccc2ccccc12)B(O)O`: the GI50 was 0.497 µM (active) in the assay on A498; 0.498 µM (active) in the assay with ACHN; 0.506 µM (active) with BT-549; 4.59 µM (inactive) in the assay on COLO 205; 0.857 µM (active) in the assay with Hs-578T; 2.34 µM (inactive) in the assay with K562. In addition, the GI50 in the assay with LOX IMVI was 0.461 µM (active); with MCF7 it was 0.56 µM (active); in the assay with NCI-H226, 0.161 µM (active); in the assay with NCI-H522 it was 1.24 µM (inactive); with NCI/ADR-RES, 1.95 µM (inactive); in the assay on OVCAR-3 it was 0.463 µM (active). Besides, the GI50 with OVCAR-4 was 4.56 µM (inactive); in the assay on OVCAR-8 it was 2.81 µM (inactive); with SF-539, 0.333 µM (active); with SK-MEL-28 it was 0.716 µM (active); in the assay with SNB-19, 5.43 µM (inactive); in the assay with TK-10, 0.578 µM (active). The GI50 in the assay on U-251 was 1.7 µM (inactive).

In the case of `CCOc1ccc(NC(=O)/C(=N\N)C(C(=O)OC)c2nc3ccc(Cl)cc3nc2O)cc1` (stereo not given), the GI50 was > 100 µM (inactive) in the assay with A498; 45 µM (inactive) in the assay on ACHN; > 100 µM (inactive) in the assay on BT-549; > 100 µM (inactive) in the assay on CCRF-CEM; > 100 µM (inactive) in the assay on Hs-578T; > 100 µM (inactive) in the assay with LOX IMVI. For the same compound, the GI50 with MCF7, in the assay with NCI-H226, with NCI-H522, with NCI/ADR-RES, in the assay on OVCAR-3 and in the assay with OVCAR-4 was > 100 µM (inactive) each time. Further, the GI50 with OVCAR-8, with SF-539, in the assay on SK-MEL-28, in the assay on TK-10 and with U-251 was > 100 µM (inactive) throughout.

Turning to `O=C(OCC(OC(=O)c1ccccc1)C1CC(C(O)C2CCCCC2)C(=O)O1)c1ccccc1` (stereo not given), the GI50 with A498 was > 100 µM (inactive); in the assay with ACHN, > 100 µM (inactive); in the assay on BT-549 it was 53 µM (inactive); with CCRF-CEM it was 22.5 µM (inactive); in the assay with COLO 205, 45.9 µM (inactive); in the assay with Hs-578T it was > 100 µM (inactive). The GI50 is 21.4 µM (inactive) in the assay with K562; 37.4 µM (inactive) in the assay with LOX IMVI; 31.7 µM (inactive) in the assay on MCF7; 87.7 µM (inactive) with NCI-H226; 22.2 µM (inactive) with NCI-H522; 23.2 µM (inactive) in the assay with NCI/ADR-RES. In addition, the GI50 with OVCAR-3 is 35.3 µM (inactive); in the assay on OVCAR-4, 32.7 µM (inactive); in the assay with OVCAR-8 it was 49.3 µM (inactive); with SF-539, 25.1 µM (inactive); in the assay with SNB-19 it was 59 µM (inactive); in the assay with TK-10, > 100 µM (inactive). Also, the GI50 in the assay with U-251 is 71.6 µM (inactive).

`CCc1n[nH]c(=O)n1CCCCCCCCCCCCn1c(CC)n[nH]c1=O`: the GI50 was 29.2 µM (inactive) in the assay with A498; 25.2 µM (inactive) with ACHN; 26.8 µM (inactive) with BT-549; 18.7 µM (inactive) in the assay on CCRF-CEM; 24.2 µM (inactive) with COLO 205; 22 µM (inactive) in the assay with Hs-578T. In addition, the GI50 in the assay with K562 is 17.9 µM (inactive); in the assay on LOX IMVI it was 24.8 µM (inactive); with MCF7, 23.9 µM (inactive); in the assay with NCI-H226, 36.9 µM (inactive); in the assay with NCI-H522 it was 26.2 µM (inactive); with NCI/ADR-RES, 28.6 µM (inactive). For the same compound, the GI50 in the assay on OVCAR-3 is 37.8 µM (inactive); with OVCAR-4, 20.3 µM (inactive); with OVCAR-8, 24.7 µM (inactive); in the assay with SF-539, 48.4 µM (inactive); with SNB-19, 39.7 µM (inactive); with TK-10, 33 µM (inactive). Moreover, the GI50 with U-251 was 22 µM (inactive).

With `[O-]/[N+](=N\c1ccccc1CO)c1ccccc1CO`, the GI50 in the assay with A498, in the assay with BT-549, in the assay with CCRF-CEM, in the assay on COLO 205, in the assay with Hs-578T and with K562 was > 100 µM (inactive) throughout. Further, the GI50 in the assay with LOX IMVI, in the assay with MCF7, in the assay on NCI-H226, with NCI-H522, in the assay on NCI/ADR-RES and with OVCAR-3 was > 100 µM (inactive) each time. In addition, the GI50 in the assay with OVCAR-4, with OVCAR-8, in the assay with SF-539, in the assay with SK-MEL-28, in the assay on SNB-19 and in the assay with TK-10 was > 100 µM (inactive) each time. Further, the GI50 in the assay on U-251 is > 100 µM (inactive).

Consider `C[C@@]12CCC3C1C=C1C(=O)c4cc(O)ccc4C(=O)[C@]1(O2)[C@@]3(C)C=O`, for which the GI50 is 1.48 µM (inactive) with A498; 7.11 µM (inactive) in the assay on ACHN; 2.51 µM (inactive) in the assay with BT-549; 0.977 µM (active) with CCRF-CEM; 9.31 µM (inactive) with COLO 205; 16.2 µM (inactive) in the assay with Hs-578T. Moreover, the GI50 was 2.3 µM (inactive) in the assay on K562; 2.57 µM (inactive) in the assay with LOX IMVI; 3.52 µM (inactive) in the assay with MCF7; 12.6 µM (inactive) in the assay with NCI-H226; 2.94 µM (inactive) in the assay on NCI-H522; 9.31 µM (inactive) in the assay with NCI/ADR-RES. The GI50 in the assay on OVCAR-3 was 3.72 µM (inactive); in the assay on OVCAR-4, 6.22 µM (inactive); in the assay with OVCAR-8, 6.01 µM (inactive); in the assay on SF-539 it was 3.82 µM (inactive); in the assay with SNB-19, 8.95 µM (inactive); in the assay with TK-10, 11.6 µM (inactive). For the same compound, the GI50 in the assay on U-251 was 9.44 µM (inactive).

For the compound `CC[C@H]1C=CCC[C@@]2(C[C@@H]3CC[C@H]4[C@@H](C(=O)OCCCCCCCCCCCCCCCC(=O)N(CCCN)C[C@@H](O)CCN)[C@@]5(CCC[C@@H](C)O5)NC(=[N+]34)N2)O1`, the GI50 in the assay on A498 was 3.01 µM (inactive); in the assay with ACHN, 3.9 µM (inactive); with BT-549 it was 2.01 µM (inactive); with COLO 205, 1.83 µM (inactive); with Hs-578T it was 1.83 µM (inactive); in the assay with K562, 1.48 µM (inactive). Further, the GI50 is 1.91 µM (inactive) in the assay on LOX IMVI; 1.62 µM (inactive) in the assay with MCF7; 1.6 µM (inactive) with NCI-H226; 1.66 µM (inactive) in the assay on NCI-H522; > 10 µM (inactive) in the assay on NCI/ADR-RES; 3.91 µM (inactive) in the assay on OVCAR-3. In addition, the GI50 is 3.4 µM (inactive) with OVCAR-4; 2.36 µM (inactive) in the assay with OVCAR-8; 1.4 µM (inactive) in the assay with SF-539; 1.36 µM (inactive) in the assay on SK-MEL-28; 1.58 µM (inactive) with TK-10; 1.64 µM (inactive) in the assay with U-251.

Consider `Nc1nnc(-c2ccco2)c(-c2ccco2)n1`, for which the GI50 in the assay with A498, with ACHN, in the assay on BT-549, in the assay on CCRF-CEM, in the assay with COLO 205 and with Hs-578T was > 100 µM (inactive) each time. The GI50 with K562, in the assay with MCF7, with NCI-H226, with NCI-H522, in the assay on NCI/ADR-RES and in the assay on OVCAR-3 was > 100 µM (inactive) throughout. The GI50 in the assay on OVCAR-4, in the assay with OVCAR-8, with SF-539, in the assay on SK-MEL-28, in the assay with SNB-19 and in the assay on TK-10 was > 100 µM (inactive) throughout. For the same compound, the GI50 in the assay on U-251 is > 100 µM (inactive).

As for `O=[Se](O)O`, the GI50 with A498 was 19 µM (inactive); with ACHN it was 4 µM (inactive); with BT-549, 4.9 µM (inactive); with COLO 205, > 30.7 µM (inactive); in the assay on Hs-578T, 0.67 µM (active); in the assay with K562 it was > 28.2 µM (inactive). Also, the GI50 with LOX IMVI was 2.76 µM (inactive); in the assay with MCF7, 9.75 µM (inactive); in the assay on NCI-H226 it was 0.828 µM (active); with NCI-H522 it was 12.2 µM (inactive); in the assay with NCI/ADR-RES, 4.57 µM (inactive); in the assay on OVCAR-3, 4.16 µM (inactive). Also, the GI50 in the assay on OVCAR-4 was 7.06 µM (inactive); in the assay with OVCAR-8, 2.88 µM (inactive); in the assay with SF-539 it was 0.912 µM (active); in the assay with SK-MEL-28 it was 3.27 µM (inactive); in the assay with SNB-19, 1.03 µM (active); in the assay on TK-10, 6.67 µM (inactive). Besides, the GI50 with U-251 is 0.815 µM (active).
